EP1127574A1, “Use of chitinous materials for inhibiting cellular nitric oxide production” (Food Industry Research and Development Institute, priority 2000, dated 2001)

Key:
RAW 264.7 cells [1] = experiment: Cytotoxicity test (MTT dye), RAW 264.7; type: cell-based, mouse
Procedure: (§1) Cell culture. NIH/3T3 (mouse embryo fibroblast, CCRC 60008) and RAW 264.7 (mouse monocyte/macrophage, CCRC 60001) cell lines were obtained from Culture Collection and Research Center (CCRC), Taiwan. Both cell lines were cultured in Dulbecco's modified essential medium (DMEM, GIBCO BRL, Rockville, MD) containing 1.5 g/L NaHCO3 supplemented with 10% fetal bovine serum (Hyclone, Logan, UT) and incubated in 5% CO2 at 37°C. Cell cultures were examined for mycoplasma contamination with the fluorescent stain Hoechst 33258 (Hay et al., ATCC Quality Control Methods for Cell Lines, American Type Culture Collection, Manassas, VA, 1992, pp 23-33). All cultures described in the present example were mycoplasma-free.
Collagen/chitin-coated wells. Two mixtures were prepared. A mixture of collagen type I (rat tail, Sigma, St. Louis, MO) was dissolved in 0.1 N acetic acid to produce a 1 mg/ml collagen solution. […]
Cytotoxicity test. […] Cytotoxicity was measured using the dye 3-(4,5-dimethylthiazol-2-yl)-2,5-diphenyl tetrazolium bromide (MTT; Merck Co., Germany) and following the methods described in Mosmann, J. Immunol. […]
The cytotoxicity associated with chitin and chitosan was evaluated for both mouse embryonic fibroblast NIH/3T3 cells and mouse monocyte-macrophage RAW 264.7 cells. […]

RAW 264.7 cells [2] = experiment: Measurement of NO production via nitrite detection (Griess reagents) in IFN-γ and LPS activated macrophages; type: cell-based, mouse; conditions: for effect on NO production (in words): activated RAW 264.7 cells
Procedure: as §1
Collagen/chitin-coated wells. Two mixtures were prepared. A mixture of collagen type I (rat tail, Sigma, St. Louis, MO) was dissolved in 0.1 N acetic acid to produce a 1 mg/ml collagen solution. Chitin was added to 0.1 N acetic acid until a 1 mg/ml mixture was achieved, and the mixture was sonicated for 3 minutes using a Labsonic U sonicator, (Braun Biotech International, Germany). After being autoclaved at 121°C for 15 minutes, the chitin mixture became a slurry of fine wires. Microtiter tissue culture plates (96-well) were rinsed with Dulbecco's phosphate-buffer saline without Ca^+2 and Mg^+2 (D-PBS, GIBCO BRL). Five microliters of collagen solution or different amounts of the chitin mixture were then added to each well. The plates were then air-dried in a laminar flow hood and stored at 4°C for up to a week.
Measurement of NO production via nitrite detection. Nitric oxide (NO) production was indirectly quantified by measuring the accumulation of nitrite (NO2^-) in the culture media using Griess reagents and sodium nitrite as a standard (Green et al., Anal. Biochem. 126:131-138, 1982; and Ignarro et al., Proc. Natl. Acad. Sci. USA 90:8103-8107, 1993). For nitrite assays, RAW 264.7 cells were subcultured in coated 96-well tissue culture plates at 1 x 10^5 cells/well and incubated for 24 hours. The culture media were changed to phenol red-free, serum-free DMEM containing 100 U/ml interferon-γ (IFN-γ, recombinant murine; GIBCO BRL) and 100 ng/ml lipopolysaccharide (LPS, Escherichia coli serotype O128:B12; Sigma). The samples were then tested as described in Rollo et al., J. Leukoc. Biol. 60:397-404, 1996.
To measure the effect of chitin on NO production, cells were subcultured directly in the chitin-coated 96-well tissue culture plates. After overnight incubation, cells became adhered to the bottom of chitin-coated wells. The culture media were removed and replaced with media supplemented with IFN-γ and LPS as described above. After 48 hours incubation, […] of culture supernatants were mixed sequentially with equal volumes of 60 mM sulfanilamide (Sigma) in 3 N HCl and 4 mM N-1-naphthylethylenediamine (Sigma) and then shaken for 5 minutes at room temperature as described in Rollo et al., supra. Nitrite concentration was measured by reading the sample's absorbance at 540 nm using a microplate reader (MRX, Dynex Technologies, Inc., VA).

[3] = 10 µg/ml in culture medium, activated RAW 264.7
[4] = Mus musculus, RAW264.7, 48 h, 10 µg/ml in culture medium, activated RAW 264.7, read-out: Nitrite Production as Percentage of Control
[5] = 2 µg/ml in culture medium, activated RAW 264.7
[6] = 10 µg/ml in culture medium, activated RAW 264.7, 2880 min

CC(=O)N[C@H]1C(O)O[C@H](CO)[C@@H](O)[C@@H]1O (stereo partly shown) [NAGA, N-acetylglucosamine, reference compound]
cytotoxicity (RAW 264.7 cells [1]): not cytotoxic
Nitrite Production (RAW 264.7 cells [2]; [3]): 66.7 ± 0.9 µM
activity at 10 µg/mL (RAW 264.7 cells [2]; [4]): 102%

chitopentose
Nitrite Production (RAW 264.7 cells [2]; [5]): 47.0 ± 0.5 µM
Nitrite Production as Percentage of Control (RAW 264.7 cells [2]; [5]): 70.6 Percentage of Control
Nitrite Production (RAW 264.7 cells [2]; [3]): 42.7 ± 1.2 µM
Nitrite Production as Percentage of Control (RAW 264.7 cells [2]; [6]): 65.1 Percentage of Control
effect on NO production (in words) (RAW 264.7 cells [2]): did substantially decrease NO production

CC(=O)N[C@H]1[C@H](O[C@H]2[C@H](O)[C@@H](NC(C)=O)C(O)O[C@@H]2CO)O[C@H](CO)[C@@H](O)[C@@H]1O (stereo partly drawn) [chitobiose, 2-acetamido-2-deoxy-4-O-(2-acetamido-2-deoxy-b-D-glucopyranosyl)-D-glucopyranose]
Nitrite Production (RAW 264.7 cells [2]; [5]): 64.9 ± 0.8 µM
Nitrite Production (RAW 264.7 cells [2]; [3]): 64.1 ± 0.9 µM
activity at 2 µg/mL (RAW 264.7 cells [2]; Mus musculus, RAW264.7, 48 h, 2 µg/ml in culture medium, activated RAW 264.7, read-out: Nitrite Production as Percentage of Control): 98.9%
activity at 10 µg/mL (RAW 264.7 cells [2]; [4]): 97.7%

N[C@H]1C(O)O[C@H](CO)[C@@H](O)[C@@H]1O (stereo partly shown) [glucoseamine, glucosamine, reference compound]
cytotoxicity (RAW 264.7 cells [1]): not cytotoxic
Nitrite Production (RAW 264.7 cells [2]; [3]): 64.3 ± 0.8 µM
activity at 10 µg/mL (RAW 264.7 cells [2]; [4]): 98%

chitohexose
Nitrite Production (RAW 264.7 cells [2]; [5]): 41.3 ± 0.8 µM
Nitrite Production as Percentage of Control (RAW 264.7 cells [2]; [5]): 63 Percentage of Control
Nitrite Production (RAW 264.7 cells [2]; [3]): 35.8 ± 2.9 µM
Nitrite Production as Percentage of Control (RAW 264.7 cells [2]; [6]): 54.5 Percentage of Control
effect on NO production (in words) (RAW 264.7 cells [2]): did substantially decrease NO production

chitotetraose
Nitrite Production (RAW 264.7 cells [2]; [5]): 63.4 ± 0.5 µM
Nitrite Production as Percentage of Control (RAW 264.7 cells [2]; [5]): 96.6 Percentage of Control
Nitrite Production (RAW 264.7 cells [2]; [3]): 61.3 ± 0.6 µM
Nitrite Production as Percentage of Control (RAW 264.7 cells [2]; [6]): 93.4 Percentage of Control

chitotriose
Nitrite Production (RAW 264.7 cells [2]; [5]): 61.5 ± 0.9 µM
Nitrite Production as Percentage of Control (RAW 264.7 cells [2]; [5]): 93.8 Percentage of Control
Nitrite Production (RAW 264.7 cells [2]; [3]): 61.1 ± 0.2 µM
Nitrite Production as Percentage of Control (RAW 264.7 cells [2]; [6]): 93.1 Percentage of Control
